Laboratory results taken from PubChem BioAssay (NCI).
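Values below derive from 48-hour exposures of cells grown in 96-well plates, with endpoints linearly interpolated between the two concentrations bracketing the appropriate inhibition level. GI50 is the concentration that inhibits growth by half. Definition used: TGI = concentration required for complete inhibition of growth.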

Assays:
Experiment in all cases: DTP human tumour cell line panel, 48 h; in the data active means GI50 below about 0.43 µM; inactive means the rest
HCC-2998 colon = test system: HCC-2998 colon
PC-3 prostate = test system: PC-3 prostate
UO-31 renal = test system: UO-31 renal
TK-10 renal = test system: TK-10 renal
OVCAR-5 ovarian = test system: OVCAR-5 ovarian
SN12C renal = test system: SN12C renal
MALME-3M melanoma = test system: MALME-3M melanoma
HL-60(TB) leukemia = test system: HL-60(TB) leukemia
CAKI-1 renal = test system: CAKI-1 renal
786-0 renal = test system: 786-0 renal
NCI-H522 lung = test system: NCI-H522 lung
MCF7 breast = test system: MCF7 breast
A549 NSCLC = test system: A549 NSCLC
ACHN renal = test system: ACHN renal
SNB-19 CNS = test system: SNB-19 CNS
HT29 colon = test system: HT29 colon
A498 renal = test system: A498 renal
RXF 393 renal = test system: RXF 393 renal
SK-MEL-5 melanoma = test system: SK-MEL-5 melanoma
SF-539 CNS = test system: SF-539 CNS
NCI-H23 lung = test system: NCI-H23 lung
MDA-MB-435 = test system: MDA-MB-435
HCT-15 colon = test system: HCT-15 colon
DU-145 prostate = test system: DU-145 prostate
COLO 205 colon = test system: COLO 205 colon
T-47D breast = test system: T-47D breast
OVCAR-3 ovarian = test system: OVCAR-3 ovarian
BT-549 breast = test system: BT-549 breast
UACC-62 melanoma = test system: UACC-62 melanoma
K-562 leukemia = test system: K-562 leukemia
SK-MEL-28 melanoma = test system: SK-MEL-28 melanoma
SK-MEL-2 melanoma = test system: SK-MEL-2 melanoma
NCI-H226 lung = test system: NCI-H226 lung
RPMI-8226 leukemia = test system: RPMI-8226 leukemia
OVCAR-8 ovarian = test system: OVCAR-8 ovarian
U251 CNS = test system: U251 CNS
KM12 colon = test system: KM12 colon
NCI-H460 lung = test system: NCI-H460 lung
SF-268 CNS = test system: SF-268 CNS
LOX IMVI melanoma = test system: LOX IMVI melanoma
IGROV1 ovarian = test system: IGROV1 ovarian
HOP-62 NSCLC = test system: HOP-62 NSCLC
M14 melanoma = test system: M14 melanoma
SF-295 CNS = test system: SF-295 CNS
SR leukemia = test system: SR leukemia
HS 578T breast = test system: HS 578T breast
HCT-116 colon = test system: HCT-116 colon
NCI/ADR-RES ovarian = test system: NCI/ADR-RES ovarian
EKVX NSCLC = test system: EKVX NSCLC
UACC-257 melanoma = test system: UACC-257 melanoma
SW-620 colon = test system: SW-620 colon
MDA-MB-231 breast = test system: MDA-MB-231 breast
OVCAR-4 ovarian = test system: OVCAR-4 ovarian
SK-OV-3 ovarian = test system: SK-OV-3 ovarian
CCRF-CEM leukemia = test system: CCRF-CEM leukemia
SNB-75 CNS = test system: SNB-75 CNS
MOLT-4 leukemia = test system: MOLT-4 leukemia
HOP-92 NSCLC = test system: HOP-92 NSCLC

C[N+]1(c2ccccc2)C=C(c2ccccc2)SC1=S (stereo unspecified)
46.7 µM: TGI (A498 renal)
> 100 µM: TGI (HCC-2998 colon) | TGI (PC-3 prostate) | TGI (UO-31 renal) | TGI (TK-10 renal) | TGI (OVCAR-5 ovarian) | TGI (SN12C renal) | TGI (MALME-3M melanoma) | TGI (HL-60(TB) leukemia) | TGI (CAKI-1 renal) | TGI (786-0 renal) | TGI (NCI-H522 lung) | TGI (MCF7 breast) | TGI (A549 NSCLC) | TGI (ACHN renal) | TGI (SNB-19 CNS) | TGI (HT29 colon) | TGI (RXF 393 renal) | TGI (SK-MEL-5 melanoma) | TGI (SF-539 CNS) | TGI (NCI-H23 lung) | TGI (MDA-MB-435) | TGI (HCT-15 colon) | TGI (DU-145 prostate) | TGI (COLO 205 colon) | TGI (OVCAR-3 ovarian) | TGI (BT-549 breast) | TGI (UACC-62 melanoma) | TGI (K-562 leukemia) | TGI (SK-MEL-28 melanoma) | TGI (SK-MEL-2 melanoma) | TGI (NCI-H226 lung) | TGI (RPMI-8226 leukemia) | TGI (OVCAR-8 ovarian) | TGI (U251 CNS) | TGI (KM12 colon) | TGI (NCI-H460 lung) | TGI (SF-268 CNS) | TGI (LOX IMVI melanoma) | TGI (IGROV1 ovarian) | TGI (HOP-62 NSCLC) | TGI (M14 melanoma) | TGI (SF-295 CNS) | TGI (SR leukemia) | TGI (HS 578T breast) | TGI (HCT-116 colon) | TGI (NCI/ADR-RES ovarian) | TGI (EKVX NSCLC) | TGI (UACC-257 melanoma) | TGI (SW-620 colon) | TGI (MDA-MB-231 breast)
8.63 µM: TGI (T-47D breast)

COc1ccc(Nc2ncc(-c3ccccc3)o2)cc1OC
> 19.5 µM: TGI (RXF 393 renal)
inactive: GI50 (HCC-2998 colon) > 25 µM | GI50 (PC-3 prostate) 17.6 µM | GI50 (UO-31 renal) 9.29 µM | GI50 (TK-10 renal) 6.07 µM | GI50 (OVCAR-5 ovarian) > 25 µM | GI50 (OVCAR-4 ovarian) > 22.2 µM | GI50 (SN12C renal) > 21.6 µM | GI50 (MALME-3M melanoma) > 25 µM | GI50 (HL-60(TB) leukemia) 10.9 µM | GI50 (CAKI-1 renal) 7.02 µM | GI50 (786-0 renal) 11.6 µM | GI50 (NCI-H522 lung) 9.33 µM | GI50 (MCF7 breast) > 25 µM | GI50 (A549 NSCLC) 15.2 µM | GI50 (SK-OV-3 ovarian) 12.7 µM | GI50 (ACHN renal) 8.59 µM | GI50 (SNB-19 CNS) > 25 µM | GI50 (HT29 colon) 16.3 µM | GI50 (A498 renal) 7.77 µM | GI50 (RXF 393 renal) 6.03 µM | GI50 (SK-MEL-5 melanoma) > 25 µM | GI50 (SF-539 CNS) 5.34 µM | GI50 (NCI-H23 lung) > 25 µM | GI50 (MDA-MB-435) > 19.5 µM | GI50 (HCT-15 colon) 10.6 µM | GI50 (DU-145 prostate) 10.7 µM | GI50 (COLO 205 colon) 18.4 µM | GI50 (T-47D breast) 24.7 µM | GI50 (OVCAR-3 ovarian) > 15.6 µM | GI50 (CCRF-CEM leukemia) 13.9 µM | GI50 (BT-549 breast) 18.6 µM | GI50 (UACC-62 melanoma) > 22.3 µM | GI50 (K-562 leukemia) 8.3 µM | GI50 (SK-MEL-28 melanoma) > 25 µM | GI50 (SNB-75 CNS) 5.09 µM | GI50 (SK-MEL-2 melanoma) 18.4 µM | GI50 (NCI-H226 lung) > 20.6 µM | GI50 (RPMI-8226 leukemia) > 24 µM | GI50 (OVCAR-8 ovarian) 16.2 µM | GI50 (U251 CNS) 11.2 µM | GI50 (KM12 colon) 4.35 µM | GI50 (NCI-H460 lung) 13.4 µM | GI50 (SF-268 CNS) > 17.2 µM | GI50 (LOX IMVI melanoma) 11.6 µM | GI50 (IGROV1 ovarian) > 17.1 µM | GI50 (HOP-62 NSCLC) > 25 µM | GI50 (M14 melanoma) > 22.9 µM | GI50 (SF-295 CNS) > 24.2 µM | GI50 (MOLT-4 leukemia) 13.6 µM | GI50 (HS 578T breast) 8.43 µM | GI50 (HCT-116 colon) 9.37 µM | GI50 (HOP-92 NSCLC) 6.04 µM | GI50 (NCI/ADR-RES ovarian) > 22 µM | GI50 (EKVX NSCLC) > 25 µM | GI50 (UACC-257 melanoma) > 25 µM | GI50 (SW-620 colon) 14.9 µM | GI50 (MDA-MB-231 breast) > 25 µM
> 25 µM: TGI (HCC-2998 colon) | TGI (PC-3 prostate) | TGI (UO-31 renal) | TGI (TK-10 renal) | TGI (OVCAR-5 ovarian) | TGI (OVCAR-4 ovarian) | TGI (SN12C renal) | TGI (MALME-3M melanoma) | TGI (CAKI-1 renal) | TGI (786-0 renal) | TGI (NCI-H522 lung) | TGI (MCF7 breast) | TGI (A549 NSCLC) | TGI (SK-OV-3 ovarian) | TGI (ACHN renal) | TGI (SNB-19 CNS) | TGI (HT29 colon) | TGI (A498 renal) | TGI (SK-MEL-5 melanoma) | TGI (SF-539 CNS) | TGI (NCI-H23 lung) | TGI (MDA-MB-435) | TGI (HCT-15 colon) | TGI (DU-145 prostate) | TGI (COLO 205 colon) | TGI (T-47D breast) | TGI (OVCAR-3 ovarian) | TGI (CCRF-CEM leukemia) | TGI (BT-549 breast) | TGI (UACC-62 melanoma) | TGI (K-562 leukemia) | TGI (SK-MEL-28 melanoma) | TGI (SNB-75 CNS) | TGI (SK-MEL-2 melanoma) | TGI (NCI-H226 lung) | TGI (RPMI-8226 leukemia) | TGI (OVCAR-8 ovarian) | TGI (U251 CNS) | TGI (KM12 colon) | TGI (NCI-H460 lung) | TGI (SF-268 CNS) | TGI (LOX IMVI melanoma) | TGI (IGROV1 ovarian) | TGI (HOP-62 NSCLC) | TGI (M14 melanoma) | TGI (SF-295 CNS) | TGI (MOLT-4 leukemia) | TGI (HS 578T breast) | TGI (HCT-116 colon) | TGI (HOP-92 NSCLC) | TGI (NCI/ADR-RES ovarian) | TGI (EKVX NSCLC) | TGI (UACC-257 melanoma) | TGI (SW-620 colon) | TGI (MDA-MB-231 breast)
> 19 µM: TGI (HL-60(TB) leukemia)
